Tested on: T1, purified NADH-Nitrate Reductase (NR) from Arabidopsis thaliana
T1 construct: gene NIA2; commercial Arabidopsis NR is probably recombinant NIA2
Experiment: NR activity assay, nitrite detection (sulphanilamide/NED, […] nm), nonlinear regression
Format: biochemical
Details: 0.8 mM NADH, 50 mM Hepes/KOH pH 7.5, FAD, Na2MoO4; nitrate 0.08-1.5 mM; no omeprazole

O=[N+]([O-])O [NO3 ^-, nitrate]
Km: 408 µM
